Results reported in patent publication US9346758B2, “Pyridinone compounds for use in photodynamic therapy” (UNIVERSITY OF EXETER, priority 2012, dated 2016).
“And” between values parts separate entries of the source, which are not always exact repeats. Equal values may be shown once.

Columns and labels:
[1] = tested on: human dermal fibroblasts (84BR); experiment: PDT efficacy: cell viability (NRU assay) following irradiation
Protocol: (§1) To assess the effect of AP2-18 (8) on PpIX-induced PDT efficacy, the same three cell types were exposed to equimolar concentrations of ALA, ALA and CP94 (3), MAL, MAL and CP94 (3), and AP2-18 (8) (as described previously) and incubated in the dark for 4 hours. The level of PpIX accumulation was then quantified as before, prior to irradiation with red light (37 J/cm^2; 635±2 nm; Aktilite, Galderma, UK).

[2] = tested on: human epithelial squamous cell carcinoma cells (A431); experiment: PpIX fluorescence after varying incubation periods (2, 3 or 4 hours); conditions: for PpIX fluorescence: A431 cells, individual replicates
Protocol: (§2) Briefly, cells were seeded at 2×10^4 cells per well in a 96 well plate and left to adhere overnight. Test solutions were prepared on the day of the assay and applied to the cells. The level of PpIX produced was monitored using a multi-well fluorescent plate reader with a 400 (±30) nm excitation filter and a 645 (±40) nm emission filter, with the level of fluorescence produced being directly proportional to the level of PpIX present. Readings were taken hourly for 6 hours and were conducted under low light conditions to reduce photobleaching of PpIX.

[3] = tested on: MRC-5 (human embryonic lung fibroblast) cells; experiment: Toxicity testing: neutral red uptake (NRU) assay, inherent (dark) toxicity; conditions: 0.01% (v/v), positive control
Protocol: Control cells were incubated in standard cell culture medium.

[4] = tested on: human glioblastoma cells (U87MG); experiment: PDT efficacy: cell viability (NRU assay) following irradiation; format: cell-based; conditions: 500 μM (combinations: 500 μM each), 4 h dark incubation, red light 37 J/cm^2, normalised to blank control
Protocol: as §1

[5] = tested on: human epithelial squamous cell carcinoma cells (A431); experiment: as above; format: cell-based; conditions: 4 h dark incubation, red light 37 J/cm^2, normalised to blank control
Protocol: as §1

[6] = tested on: human epithelial squamous cell carcinoma cells (A431); experiment: Cell viability (NRU assay) after irradiation with varying incubation periods (2, 3 or 4 hours); format: cell-based; conditions: A431 cells, then red light 37 J/cm^2, NRU assay, individual replicates
Protocol: Neutral red is an inert dye actively taken up and stored by viable (living) cells, an action which is unable to be performed by non-viable cells, therefore the level of neutral red taken up is directly proportional to the number of viable cells present following a given exposure. Following uptake of the dye, cells are lysed and the level of neutral red quantified using a plate reader.
After the relevant incubation period, the cells were irradiated with red light (37 J/cm^2; 635±2 nm; Aktilite, Galderma, UK).

[7] = tested on: human epithelial squamous cell carcinoma cells (A431); experiment: PpIX fluorescence accumulation; conditions: A431 cells;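 note: PpIX fluorescence accumulating inside A431 cells, read under dim light to limit photobleaching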
Protocol: as §2
These were tested alongside equimolar concentrations of ALA, ALA and CP94 (3), MAL, and MAL and CP94 (3), with all test compounds being investigated in human dermal fibroblasts (84BR; FIGS. 2A and 2B), human epithelial squamous cell carcinoma cells (A431; FIGS. 3A and 3B) and human glioblastoma cells (U87MG; FIGS. 4A and 4B).

[8] = 500 μM (each drug), incubation time 2 hours
[9] = 500 μM (each drug), incubation time 3 hours
[10] = 500 μM (each drug), incubation time 4 hours
[11] = 1000 μM (each drug), incubation time 2 hours
[12] = 1000 μM (each drug), incubation time 3 hours
[13] = 1000 μM (each drug), incubation time 4 hours
[14] = 250 μM (each drug), incubation time 2 hours, 250 µM
[15] = 250 μM (each drug), incubation time 3 hours, 250 µM
[16] = 250 μM (each drug), incubation time 4 hours, 250 µM
[17] = 500 μM (each drug), incubation time 2 hours, 500 µM
[18] = 500 μM (each drug), incubation time 3 hours, 500 µM
[19] = 500 μM (each drug), incubation time 4 hours, 500 µM
[20] = 1000 μM (each drug), incubation time 2 hours, 1000 µM
[21] = 1000 μM (each drug), incubation time 3 hours, 1000 µM
[22] = 1000 μM (each drug), incubation time 4 hours, 1000 µM

SMILES | PpIX fluorescence [2, 8] | PpIX fluorescence [2, 9] | PpIX fluorescence [2, 10] | PpIX fluorescence [2, 11] | PpIX fluorescence [2, 12] | PpIX fluorescence [2, 13] | cell viability [6, 14] | cell viability [6, 15] | cell viability [6, 16] | cell viability [6, 17] | cell viability [6, 18] | cell viability [6, 19] | cell viability [6, 20] | cell viability [6, 21] | cell viability [6, 22] | other results
CCc1c(O)c(O)cc[n+]1CC.[Cl-] [CP94] |  |  |  |  |  |  |  |  |  |  |  |  |  |  |  | effect of iron chelator on PDT effect of ALA and MAL ([1]; 84BR, added to ALA or MAL): improved the PDT effect of both ALA and MAL in a concentration dependent manner; effect of iron chelator on PpIX levels ([2]; A431, added to the ALA or MAL incubation period): improved PpIX levels
OO [H2O2, hydrogen peroxide] |  |  |  |  |  |  |  |  |  |  |  |  |  |  |  | cell viability by NRU [3]: significant reduction in cell viability
COC(=O)CCC(=O)CN [MAL, methyl aminolevulinate] | −7.33 and 4.67 and −5.67 (2×) and −7.67 and 8.67 and −2.33 and 1.67 and 21 | −3.67 and −6.67 and 5.33 and −2.67 (2×) and 0.33 and 7.67 and −2.33 and 1.67 | −4.33 and −7.33 and 3.67 (2×) and 0.67 and 1.67 and 9 and 0 and 2 | 28 and 21 and 9.67 and 10.67 and 11.67 and −3.667 and 0.3333 and −8.333 and 51 | 45 and 50 and 42 and 22.67 and 25.67 and 20.67 and −3.333 and 0.6667 and −10.3333 | 70 and 74 and 64 and 34.33 and 39.33 and 30.33 and −2 and 4 and −8.333 | 78.63 and 100.9237 and 89.58 and 117.6227 and 107.2209 and 106.7755 and 45.7309 and 63.26 and 57.86 | 92.9 and 73.67 and 65.45 and 62.6519 and 51.74 and 54.37 and 33.36 and 40.45 and 63.31 and 38.2134 and 54.71 and 47.85 | 90.46 and 107.8629 and 109.4385 and 93.64 and 106.3667 and 111.1665 and 115.1445 and 124.4547 | 103.8357 and 110.62 and 117.5455 and 82.92 and 108.8432 and 82.89 and 99.5 and 114.8824 and 75.71 | 40.78 and 47.71 and 49.73 and 71.71 and 76.89 and 81.87 and 74.41 and 55.25 and 104.0986 and 49.38 and 75.04 and 67.4 | 90.24 and 110.2301 and 98.69 and 113.2846 and 104.0869 and 74.42 and 104.4856 and 97.36 and 135.6405 | 113.344 and 113.9162 and 113.1911 and 108.366 and 113.6783 and 85.84 and 45.89 and 39.15 and 53.82 | 93.27 and 84.83 and 88.71 and 39.35 and 38.5 and 43.01 and 59.91 and 53.88 and 52.9157 and 75.55 and 92.95 and 90.52 | 91.78 and 85.804 and 110.3323 and 138.7061 and 132.5587 and 155.8802 and 165.2883 and 91.73 and 106.1163 | viability at 500 µM ([1]; Homo sapiens, Fibroblast, light or radiation study, 4 h, read-out: cell viability following irradiation, 84BR, 500 μM, 4 hours in the dark, red light 37 J/cm^2, NRU, normalised against blank control cells): 80.9%; viability at 1000 µM ([1]; Homo sapiens, Fibroblast, light or radiation study, 4 h, read-out: cell viability following irradiation, 84BR, 1000 μM, 4 hours in the dark, red light 37 J/cm^2, NRU, normalised against blank control cells): 97.3%; cell viability following irradiation [4]: 83.8% and 72.46% and 73.96% and 78.24% and 80.7%; viability at 500 µM ([4]; Homo sapiens, U-87 MG, light or radiation study, 4 h): 81.6%; cell viability following irradiation ([5]; 250 μM (combinations: 250 μM each)): 90.46% and 107.8629% and 109.4385% and 93.64% and 106.3667%; cell viability following irradiation ([5]; 500 μM (combinations: 500 μM each)): 90.24% and 110.2301% and 98.69% and 113.2846% and 104.0869% and 74.42%; viability at 250 µM ([5]; Homo sapiens, A-431, light or radiation study, 4 h, 250 μM (combinations: 250 μM each)): 110%
NCC(=O)CCC(=O)O [ALA, aminolevulinic acid] | −3.67 and −1.67 and −2.67 and 15.33 and 12.33 and 19.33 and 3.667 and 0.6667 and 5 | 7 and 9 and 6 and 27 and 24 and 32 and 2.667 (2×) and 4.667 | 22.67 and 25.67 and 27.67 and 38 and 36 and 43 and 5 and 4 and 6.667 | 1.33 and 9.33 and 14.33 and 12.33 and 15.33 and 16.33 and 8.333 and 6.333 and 9.667 | 14.33 and 25.33 and 26.33 and 27.33 and 28.33 and 32.33 and 12.33 and 10.33 and 9.333 | 32.33 and 45.33 (2×) and 43.33 and 38.33 (2×) and 12.33 (2×) and 12 | 104.2825 and 103.9063 and 123.5695 and 112.4377 and 117.6227 and 97.71 and 44.14 and 34.7079 and 50.73 | 124.0654 and 135.6267 and 95.31 and 55.77 and 55.32 and 62.02 and 56.05 and 85.67 and 55.08 and 120.1384 and 57.18 and 77.31 | 82.01 and 64.97 and 20.14 and 125.0307 and 150.1618 and 127.1037 and 6.313 and 9.566 and 15.91 | 99.84 and 113.3557 and 112.7404 and 95.2285 and 69.94 and 82.25 and 65.56 and 62.54 and 64.53 | 118.05 and 77.38 and 69.99 and 77.18 and 78.53 and 70.11 and 42.15 and 44.3852 and 60.85 and 274.4678 and 51.1 and 55.1 | 67.69 and 28.73 and 8.056 and 111.2275 and 105.7573 and 29.3785 and 108.0828 and 59.78 and 39.7 | 87.3 and 106.5283 and 118.4391 and 110.6882 and 113.0739 and 122.8714 and 119.6405 and 111.0759 and 80.15 | 146.327 and 79.29 and 120.4428 and 43.82 and 38.85 and 34.8 and 39.79 and 27.42 and 54.75 and 57.2548 and 73.63 and 60.04 | 59.3 and 27.29 and 6.353 and 109.5082 and 86.85 and 18.6677 and 42.58 and 43.47 and 28.34 | PpIX accumulation ([7]; 500 μM (each component), exposure time 4 hours): 22.67 and 25.67 and 27.67 and 38 and 36 and 43; PpIX accumulation ([7]; 500 μM (each component), exposure time 5 hours): 39.67 and 42.67 and 45.67 and 49.33 and 51.33; PpIX accumulation ([7]; 500 μM (each component), exposure time 6 hours): 52.33 and 55.33 and 61.33 and 61.67 and 62.67; PpIX accumulation ([7]; 1000 μM (each component), exposure time 4 hours): 32.33 and 45.33 and 43.33 and 38.33; PpIX accumulation ([7]; 1000 μM (each component), exposure time 5 hours): 50.67 and 63.67 and 60.67 and 51.67 and 54.67 and 57.67; PpIX accumulation ([7]; 1000 μM (each component), exposure time 6 hours): 63 and 79 and 72 and 65 and 68 and 75
